US20150018305A1, “SIRTUIN INDUCER, TISSUE REPAIRING AGENT, HEPATOCYTE GROWTH FACTOR INDUCER, TISSUE HOMEOSTASIS MAINTENANCE AGENT, AND TLR4 AGONIST, HAVING HYALURONIC ACID FRAGMENT AS ACTIVE INGREDIENT” (HYALURONAN RESEARCH INSTITUTE, INC., priority 2012, published 2015)

What was measured:
[1] = system: human sirtuin proteins (SIRT1); assay: Sirtuin induction in human epidermal keratinocytes, anti human SIRT1 antibody staining (Test Example 1); assay type: cell-based; conditions: 24 hours
Description: Human epidermal keratinocytes (normal human keratinocytes from a person) were cultured and prepared. Following culture of the human keratinocytes in a prolonged culture growth medium (EpiLife-KG2) at 37° C. under 5% CO2, the cells were recovered by trypsin treatment. The cells were then inoculated into a 96-well plate (100 μL per well) and cultured overnight. Following completion of culture, the culture broth from each well was transferred to a culture medium (keratinocyte SFM made by Gibco) to which no hyaluronic acid fragments were added, or to the same culture medium to which a hyaluronic acid fragment (4mer) was added to a final concentration of 0.01 ng/ml, 0.1 ng/ml, 1.0 ng/ml, or 10 ng/ml, and cultured for 24 hours.
After 24 hours had passed, the cells in each well were stained with the anti human SIRT1 antibody. The anti human SIRT1 antibody is an antibody that recognizes and stains human sirtuin proteins. The stained cells were observed under a microscope (made by Nikon), taking photographs of cell morphology and stained images of cells.

[2] = system: activated (phosphorylated) NF-kappaB; assay: NF-kappaB expression in TNF-α treated human large intestine epithelial cells, fluorescent staining (Test Example 9); assay type: cell-based; conditions: TNF-α treatment, 10 ng/ml test substance, 24 hours
Description: It was investigated whether the expression of NF-kappaB in human large intestine epithelial cells (HT29 cells) when subjected to TNF-α treatment is affected by treatment with the hyaluronic acid fragment. NF-kappaB is a transcription factor involved in inflammation, tissue destruction, and the like.
DMEM culture medium (made by Wako Pure Chemical Industries, Ltd.) to which TNF-α and the hyaluronic acid fragment were added, and DMEM culture medium from which these were omitted, were prepared, and human large intestine epithelial cells were treated for 24 hours in these culture media. Thereafter, the cells were stained with an antibody that recognizes activated (phosphorylated) NF-kappaB.
The vertical axis of the graph indicates fluorescent intensity. It may be appreciated that, in cells to which four- to eight-unit hyaluronic acid fragments were added, the expression level of NF-kappaB is reduced in statistically significant fashion.

[3] = system: Hepatocyte growth factor expression (mRNA); assay: Induction of hepatocyte growth factor in human epidermal keratinocytes, DNA microarray (Test Example 13); assay type: cell-based; conditions: 10 ng/ml, 24 hours; Cy5, DNA microarray
Description: Human epidermal keratinocytes (normal human keratinocytes from a person) were cultured respectively in a culture medium containing 10 ng/ml of four-unit hyaluronic acid fragment (4mer), and a culture medium containing no hyaluronic acid fragments (untreated), for 24 hours. For the culture medium, a serum-free medium for use with normal human keratinocytes, made by DS Pharma Biomedical Co. Ltd. was employed. After culture, the cells were recovered and analyzed with a DNA microarray (DNA chip).

[4] = system: sirtuin enzymatic activity (sirt1 enzymatic activity); assay: Sirtuin enzymatic activity in cell solution of human epidermal keratinocytes, CycLex SIRT1/Sir2 Deacetylase Fluorometric Assay Kit (Test Example 2); assay type: cell-based; conditions: 10 ng/ml final concentration; cell crude extract
Description: Human epidermal keratinocytes were treated in the same manner as in Test Example 1, except that the final concentration of the hyaluronic acid fragment was 10 ng/ml, the size thereof being four sugar units (4mer), six sugar units (6mer), or 10 sugar units (10mer), while measuring the sirtuin enzymatic activity (sirt1 enzymatic activity) in the cell solution thereof. For purposes of comparison, 10 kDa or 900 kDa hyaluronic acid, and resveratrol, a known sirtuin activator, were likewise tested at 10 ng/ml final concentration. A human sirtuin recombinant protein (recombinant human sirt1) produced through genetic recombination techniques was used as a substance for verification of the measurement system. Sirtuin enzymatic activity in the cell crude extract was measured with the CycLex SIRT1/Sir2 Deacetylase Fluorometric Assay Kit (trade name of CycLex), following the protocol of the kit.

liver function = assay: Concanavalin A liver damage model, blood GOT and GPT (Test Example 15); assay type: in vivo; conditions: concanavalin A 20 mg/kg caudal vein, fragment oral, after 24 hours, 20-month old female Balb/c mice
Description: The effect of action of the hyaluronic acid fragment on the liver of aged […] was investigated. Specifically, 20-month old (aged) female Balb/c mice were administered through the caudal vein with concanavalin A (20 mg/kg of body weight) one time, as a liver damage model. Subsequent to administration of concanavalin A, hyaluronic acid fragment (4mer or L3mer) were administered orally, and the effect thereof was investigated. Impairment of liver function was evaluated after 24 hours, by drawing blood and measuring the GOT and GPT values in the blood.

[5] = system: rat bone marrow mesenchymal stem cells; assay: Hydrogen peroxide induced aging of rat bone marrow mesenchymal stem cells, PI dead cell count (Test Example 21); assay type: cell-based; conditions: 2 hours
Description: It was investigated whether the process, in which rat bone marrow mesenchymal stem cells experienced cellular aging (increased cell death) when treated with hydrogen peroxide, is affected by treatment with the hyaluronic acid fragment. Specifically, the following test was performed.
Using a DMEM culture medium (made by Wako Pure Chemical Industries, Ltd.), rat bone marrow mesenchymal stem cells were cultured by usual methods at 37° C. under 5% CO2. Hydrogen peroxide was added to the culture medium to a final concentration of 1 μM to bring about stimulation for a 15-minute period, and the culture broth was then transferred to DMEM culture medium containing no added hyaluronic acid fragments; to DMEM culture medium containing hyaluronic acid fragment (L3mer) added to a final concentration of 100 ng/ml; or to DMEM culture medium containing the hyaluronic acid fragment (L3mer) plus TLR4/MD2 added to a final concentration of 10 μg/ml, and cultured for 2 hours.
After 2 hours had passed, PI ([…]), which emits red fluorescence upon uptake into dead cells, was added to the culture medium to a final concentration of 5 μg/ml, and after incubation for 15 minutes, the condition of appearance of dead cells was examined with a fluorescence microscope.

[6] = system: human neural stem cells (neurospheres); assay: Action on human neural stem cells, Nestin/Tubulin double staining (Test Example 7); assay type: cell-based; conditions: 10 ng/ml, 12 days
Description: Human neural stem cells (neurospheres) (trade name Gibco Human Neural Stem Cells (H9-Derived) made by Gibco) were cultured in Neurobasal Media (trade name, made by Gibco) culture medium at 37° C. under 5% CO2, and the cells were recovered by trypsin treatment. The cells were then inoculated into a 96-well plate (100 μL per well) and cultured overnight. Following completion of culture, the culture broth from each well was transferred to Neurobasal Media (trade name, made by Gibco) culture medium to which no hyaluronic acid fragments were added, or to the same medium to which hyaluronic acid fragment (L3mer) had been added to a final concentration of 10 ng/ml, and cultured for 12 days
After 12 days had passed, the cells in each well were double-stained with anti human Nestin antibody and anti human Tubulin antibody. Nestin is a protein that is specifically expressed in neural stem cells, and is a neural stem cell marker. The stained cells were observed under a microscope (made by Nikon), taking photographs of cell morphology and stained images of cells.

CC(=O)N[C@H]1[C@H](O[C@H]2[C@H](O)[C@@H](O)[C@H](O[C@H]3[C@H](O)[C@@H](CO)OC(O)[C@@H]3NC(C)=O)O[C@@H]2C(=O)O)O[C@H](CO)[C@@H](O)[C@@H]1O[C@@H]1O[C@H](C(=O)O)[C@@H](O)[C@H](O)[C@H]1O (stereo partly drawn) [4mer, GlcA(-GlcNAc-GlcA)1-GlcNAc]
Average staining intensity ([1]; 0.01 ng/ml): 6.33
Average staining intensity ([1]; 0.1 ng/ml): 6.35
Average staining intensity ([1]; 1.0 ng/ml): 6.52
Average staining intensity ([1]; 10 ng/ml): 6.54
expression level of NF-kappaB (fluorescent intensity) [2]: inhibited to the greatest extent
Fluorescent intensity, Hepatocyte growth factor expression in keratinocytes (mRNA) [3]: 200.40
sirtuin enzymatic activity (sirt1 enzymatic activity) compared with negative control [4]: approximately triple

CC(=O)NC1C(O[C@@H]2OC(C(=O)O)[C@@H](O)C(O)C2O)[C@H](O)C(CO)O[C@H]1O[C@@H]1C(C(=O)O)O[C@@H](OCCCN=[N+]=[N-])C(O)C1O (stereo partly drawn) [L3mer]
impairment of liver function (GOT values in the blood) (liver function): markedly better with the L3mer than with the 4mer
suppression of cell death with TLR4/MD2 added ([5]; 100 ng/ml plus TLR4/MD2 10 μg/ml): inhibited by addition of TLR4/MD2
hydrogen peroxide-induced cellular aging (increased cell death, dead cells per unit visual field) ([5]; hydrogen peroxide 1 μM, 100 ng/ml, PI staining): suppressed
expression of Nestin and Tubulin [6]: expression of both Nestin and Tubulin was confirmed
process formation (morphology) [6]: process formation was confirmed
